Converted amounts (≈) assume the structure as drawn.

Assay type in all cases: functional
Assay [1] deals with Salmonella enterica. Nature of the assay: Antibacterial activity against Salmonella enterica ATCC 14028 by micro broth dilution method.
In assay [2] the test system is Escherichia coli. As to the kind of experiment: Antibacterial activity against Escherichia coli JM109 by micro broth dilution method.
Assay [3] relates to Staphylococcus aureus. Nature of the assay: Antibacterial activity against Staphylococcus aureus ATCC 25923 by micro broth dilution method.
Assay [4] is described as follows: Antibacterial activity against Bacillus proteus ATCC 13315 by micro broth dilution method.
Assay [5] has as its system Saccharomyces cerevisiae. Nature of the assay: Antifungal activity against Saccharomyces cerevisiae ATCC 9763 after 24 hrs by micro broth dilution method. Particulars: ATCC 9763, 24 h.
Assay [6] concerns Pseudomonas aeruginosa. Nature of the assay: Antibacterial activity against Pseudomonas aeruginosa ATCC 27853 by micro broth dilution method.
Assay [7] has as its system Escherichia coli. As to the kind of experiment: Antibacterial activity against Escherichia coli DH52 by micro broth dilution method.
The subject of assay [8] is Staphylococcus aureus. Nature of the assay: Antibacterial activity against methicillin-resistant Staphylococcus aureus N315 by micro broth dilution method.
Assay [9] concerns Bacillus spizizenii. Nature of the assay: Antibacterial activity against Bacillus subtilis ATCC 6633 by micro broth dilution method.
Assay [10] is described as follows: Antifungal activity against Candida mycoderma ATCC 9888 after 24 hrs by micro broth dilution method. Particulars: Candida vini.
The test system of assay [11] is Cyberlindnera jadinii. Nature of the assay: Antifungal activity against Candida utilis ATCC 9950 after 24 hrs by micro broth dilution method. Particulars: Williopsis jadinii, ATCC 9950, 24 h.
The test system of assay [12] is Micrococcus luteus. As to the kind of experiment: Antibacterial activity against Micrococcus luteus ATCC 4698 by micro broth dilution method. Particulars: NCTC 2665.
Assay [13] relates to Aspergillus flavus. As to the kind of experiment: Antifungal activity against Aspergillus flavus ATCC 204304 after 24 hrs by micro broth dilution method. Particulars: ATCC 204304, 24 h.
Assay [14] relates to Candida albicans. Nature of the assay: Antifungal activity against Candida albicans ATCC 10231 after 24 hrs by micro broth dilution method. Particulars: ATCC 10231, 24 h.
Assay [15] has as its system Shigella dysenteriae. As to the kind of experiment: Antibacterial activity against Shigella dysenteriae by micro broth dilution method.

`O=C(O)c1cn(C2CC2)c2cc(N3CCN(Cc4nc5ccc(F)cc5[nH]4)CC3)c(F)cc2c1=O`: the minimal inhibitory concentration (MIC) stood at 1 µg/mL (≈ 2.09 µM) in [1]; 4 µg/mL (≈ 8.34 µM) in assay [2]; 4 µg/mL (≈ 8.34 µM) in assay [3]; 1 µg/mL (≈ 2.09 µM) in assay [4]; 2 µg/mL (≈ 4.17 µM) in [6]; 1 µg/mL (≈ 2.09 µM) in assay [7]. For the same compound, the MIC in assay [8] amounted to 2 µg/mL (≈ 4.17 µM); in assay [9], 0.5 µg/mL (≈ 1.04 µM); in assay [12], 2 µg/mL (≈ 4.17 µM); in [15], 2 µg/mL (≈ 4.17 µM). Moreover, the MIC80 was determined as 0.5 µg/mL (≈ 1.04 µM) in assay [5]; 2 µg/mL (≈ 4.17 µM) in assay [10]; 1 µg/mL (≈ 2.09 µM) in assay [11]; 1 µg/mL (≈ 2.09 µM) in [13]; 8 µg/mL (≈ 16.7 µM) in assay [14].
`CCn1cc(C(=O)O)c(=O)c2cc(F)c(N3CCN(Cc4nc5ccccc5n4Cc4ccc([N+](=O)[O-])cc4)CC3)cc21`: the MIC worked out at 4 µg/mL (≈ 6.84 µM) in assay [1]; 8 µg/mL (≈ 13.7 µM) in assay [2]; 4 µg/mL (≈ 6.84 µM) in assay [3]; 16 µg/mL (≈ 27.4 µM) in assay [4]; 4 µg/mL (≈ 6.84 µM) in [6]; 16 µg/mL (≈ 27.4 µM) in assay [7]. Also, the MIC in assay [8] stood at 8 µg/mL (≈ 13.7 µM); in assay [9] it was 2 µg/mL (≈ 3.42 µM); in assay [12], 4 µg/mL (≈ 6.84 µM); in assay [15], 4 µg/mL (≈ 6.84 µM). The MIC80 in assay [5] came out at 4 µg/mL (≈ 6.84 µM); in assay [10], 16 µg/mL (≈ 27.4 µM); in assay [11] it was 4 µg/mL (≈ 6.84 µM); in assay [13], 8 µg/mL (≈ 13.7 µM); in [14] it was 4 µg/mL (≈ 6.84 µM).
With `CCn1cc(C(=O)OC)c(=O)c2cc(F)c(N3CCN(/C=N\c4nc5ccccc5[nH]4)CC3)cc21`, the MIC in assay [1] is 16 µg/mL (≈ 33.6 µM); in assay [2], 64 µg/mL (≈ 134 µM); in assay [3] it was 64 µg/mL (≈ 134 µM); in [4], 32 µg/mL (≈ 67.2 µM); in assay [6], 8 µg/mL (≈ 16.8 µM); in assay [7], 32 µg/mL (≈ 67.2 µM). The MIC in assay [8] was 128 µg/mL (≈ 269 µM); in [9] it was 4 µg/mL (≈ 8.39 µM); in assay [12] it was 32 µg/mL (≈ 67.2 µM); in [15] it was 64 µg/mL (≈ 134 µM). In addition, the MIC80 stood at 32 µg/mL (≈ 67.2 µM) in assay [5]; 128 µg/mL (≈ 269 µM) in assay [10]; 64 µg/mL (≈ 134 µM) in assay [11]; 64 µg/mL (≈ 134 µM) in assay [13]; 64 µg/mL (≈ 134 µM) in assay [14].
In the case of `CCCn1c(CN2CCN(c3cc4c(cc3F)c(=O)c(C(=O)O)cn4CC)CC2)nc2ccccc21`, the MIC in assay [1] stood at 16 µg/mL (≈ 32.5 µM); in assay [2] it was 128 µg/mL (≈ 260 µM); in assay [3], 256 µg/mL (≈ 521 µM); in assay [4], 128 µg/mL (≈ 260 µM); in assay [6] it was 32 µg/mL (≈ 65.1 µM); in assay [7], 32 µg/mL (≈ 65.1 µM). Besides, the minimal inhibitory concentration (MIC) in [8] was found to be 16 µg/mL (≈ 32.5 µM); in assay [9], 2 µg/mL (≈ 4.07 µM); in assay [12], 8 µg/mL (≈ 16.3 µM); in assay [15], 32 µg/mL (≈ 65.1 µM). Also, the MIC80 amounted to 32 µg/mL (≈ 65.1 µM) in assay [5]; 2 µg/mL (≈ 4.07 µM) in assay [10]; 32 µg/mL (≈ 65.1 µM) in assay [11]; 32 µg/mL (≈ 65.1 µM) in assay [13]; 32 µg/mL (≈ 65.1 µM) in [14].
With `CCCCCCCCCCCCn1c(CN2CCN(c3cc4c(cc3F)c(=O)c(C(=O)O)cn4C3CC3)CC2)nc2ccccc21`, the MIC in assay [1] is 16 µg/mL (≈ 25.4 µM); in assay [2] it was 16 µg/mL (≈ 25.4 µM); in assay [3], 32 µg/mL (≈ 50.8 µM); in assay [4] it was 4 µg/mL (≈ 6.35 µM); in [6], 4 µg/mL (≈ 6.35 µM); in assay [7], 8 µg/mL (≈ 12.7 µM). Besides, the minimal inhibitory concentration (MIC) in [8] was found to be 64 µg/mL (≈ 102 µM); in [9], 4 µg/mL (≈ 6.35 µM); in [12], 4 µg/mL (≈ 6.35 µM); in assay [15], 2 µg/mL (≈ 3.18 µM). Further, the MIC80 in assay [5] turned out to be 8 µg/mL (≈ 12.7 µM); in assay [10], 4 µg/mL (≈ 6.35 µM); in assay [11], 32 µg/mL (≈ 50.8 µM); in [13], 4 µg/mL (≈ 6.35 µM); in assay [14], 64 µg/mL (≈ 102 µM).
Take `CCCCCCCCCCCCCCCCCCn1c(CN2CCN(c3cc4c(cc3F)c(=O)c(C(=O)O)cn4C3CC3)CC2)nc2ccccc21`: the minimal inhibitory concentration (MIC) in [1] is 16 µg/mL (≈ 22.4 µM); in assay [2], 128 µg/mL (≈ 179 µM); in assay [3], 64 µg/mL (≈ 89.6 µM); in assay [4], 64 µg/mL (≈ 89.6 µM); in assay [6] it was 32 µg/mL (≈ 44.8 µM); in assay [7] it was 128 µg/mL (≈ 179 µM). For the same compound, the minimal inhibitory concentration (MIC) was found to be 64 µg/mL (≈ 89.6 µM) in assay [8], 64 µg/mL (≈ 89.6 µM) in assay [9], 128 µg/mL (≈ 179 µM) in [12] and 64 µg/mL (≈ 89.6 µM) in assay [15]. Also, the MIC80 in assay [5] was 64 µg/mL (≈ 89.6 µM); in assay [10] it was 64 µg/mL (≈ 89.6 µM); in assay [11] it was 128 µg/mL (≈ 179 µM); in assay [13], 64 µg/mL (≈ 89.6 µM); in [14], 128 µg/mL (≈ 179 µM).
On to `O=C(O)c1cn(C2CC2)c2cc(N3CCN(Cc4nc5ccc([N+](=O)[O-])cc5[nH]4)CC3)c(F)cc2c1=O`, for which the MIC is 4 µg/mL (≈ 7.9 µM) in assay [1]; 8 µg/mL (≈ 15.8 µM) in assay [2]; 16 µg/mL (≈ 31.6 µM) in assay [3]; 4 µg/mL (≈ 7.9 µM) in [4]; 0.5 µg/mL (≈ 0.987 µM) in [6]; 4 µg/mL (≈ 7.9 µM) in assay [7]. For the same compound, the minimal inhibitory concentration (MIC) in assay [8] was found to be 2 µg/mL (≈ 3.95 µM); in assay [9], 8 µg/mL (≈ 15.8 µM); in assay [12], 8 µg/mL (≈ 15.8 µM); in assay [15], 4 µg/mL (≈ 7.9 µM). The MIC80 is 4 µg/mL (≈ 7.9 µM) in assay [5]; 8 µg/mL (≈ 15.8 µM) in assay [10]; 4 µg/mL (≈ 7.9 µM) in [11]; 4 µg/mL (≈ 7.9 µM) in assay [13]; 2 µg/mL (≈ 3.95 µM) in [14].
